Measurements published in patent publication US20240199676A1, “ANTIVIRAL COMPOUNDS AND METHODS OF MAKING AND USING THE SAME” (Gilead Sciences, Inc., priority 2022, published 2024).
pEC50: −log10 of the molar value.

Test system: Respiratory syncytial virus recombinant with luciferase (RSV-Luc5) in HEp-2 cells
Assay: HEp-2 RSV-Luc5 384-well Assay (EC50 RSVFLUC Hep2-384, Ex. R)
Assay type: cell-based
Details: human respiratory syncytial virus, HEp-2, 72 h, read-out: RSV Hep-2 FLuc EC50 (per Ex. R)
Description: Example R. HEp-2 RSV-Luc5 384-well Assay (EC50 RSVFLUC Hep2-384)
HEp-2 cell line was purchased from ATCC (Manassas, VA Cat #CCL-23) and maintained in Dulbecco's […] (DMEM) (Corning, New York, NY, Cat #15-018CM) supplemented with 10% fetal bovine serum (FBS) (Hyclone, Logan, UT, Cat #SH30071-03) and 1× Penicillin-Streptonycin-L-Glutamine (Corning, New York, NY, Cat #30-009-CI). Cells were passaged 2 times per week to maintain sub-confluent densities and were used for experiments at passage 5-20. Respiratory syncytial virus recombinant with luciferase (RSV-Luc5) direct pelleted virus (≥1×107 TCID50/ml) was purchased from Microbiologics (Saint Cloud, MN). Viral replication was determined in HEp-2 cells in the following manner.
Compounds are prepared in 384-well polypropylene plates (Greiner, Monroe, NC, Cat#784201) with 8 compounds per plate in grouped replicates of 4 at 10 serially diluted concentrations (1:3).
HEp-2 cells were suspended in DMEM (supplemented with 10% FBS and 1× Penicillin-Streptomycin-L-Glutanine) and 60 uL of 4,000 cells per well were seeded into 384-well plates (Greiner, Monroe, NC, Cat #781080) using Biotek MultiFlo dispenser. […] Viral replication was then assessed by measuring luminescence signal using and Envision plate reader. […]

CC(C)C(=O)OC[C@@]1(C#N)O[C@@H](c2ccc3c(N)ncnn23)[C@H](O)[C@@H]1O [Compound 1, ((2R,3S,4R,5S)-5-(4-aminopyrrolo[2,1-f][1,2,4]triazin-7-yl)-2-cyano-3,4-dihydroxytetrahydrofuran-2-yl)methyl isobutyrate]
pEC50: 4.98
